Source: patent US20100173968A1, “SUB-TYPE SELECTIVE AZABICYCLOALKANE DERIVATIVES” (TARGACEPT, INC., priority 2007, published 2010)
Counter-ions that a name gives are not always drawn. Like-named read-outs stand apart in the source and are kept apart here.

Experiments:
α4β2 nAChR Subtype = α4β2 nAChR Subtype (Rattus norvegicus, UniProt P09483+P12390); assay: Radioligand binding at α4β2 nAChR subtype, inhibition of [3H]nicotine binding, rat cerebral cortex membranes; conditions: [3H]nicotine 5 nM
Sequence of α4β2 nAChR Subtype (P09483 31-630): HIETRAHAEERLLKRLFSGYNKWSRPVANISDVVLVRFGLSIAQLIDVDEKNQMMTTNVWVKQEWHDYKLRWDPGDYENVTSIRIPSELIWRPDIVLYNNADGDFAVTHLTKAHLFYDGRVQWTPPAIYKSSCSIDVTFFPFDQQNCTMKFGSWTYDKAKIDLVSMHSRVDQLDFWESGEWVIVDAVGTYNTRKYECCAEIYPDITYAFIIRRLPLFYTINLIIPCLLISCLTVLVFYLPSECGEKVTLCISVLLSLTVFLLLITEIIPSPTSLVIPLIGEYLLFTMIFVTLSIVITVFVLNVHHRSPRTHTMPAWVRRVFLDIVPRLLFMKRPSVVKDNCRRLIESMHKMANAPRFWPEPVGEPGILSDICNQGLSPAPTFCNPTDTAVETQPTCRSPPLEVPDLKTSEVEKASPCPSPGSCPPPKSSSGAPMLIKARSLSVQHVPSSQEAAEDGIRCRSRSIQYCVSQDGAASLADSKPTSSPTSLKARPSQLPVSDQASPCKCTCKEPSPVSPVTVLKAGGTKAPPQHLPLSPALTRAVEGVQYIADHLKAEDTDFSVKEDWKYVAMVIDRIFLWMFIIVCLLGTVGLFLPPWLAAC
Sequence of α4β2 nAChR Subtype (P12390 25-500): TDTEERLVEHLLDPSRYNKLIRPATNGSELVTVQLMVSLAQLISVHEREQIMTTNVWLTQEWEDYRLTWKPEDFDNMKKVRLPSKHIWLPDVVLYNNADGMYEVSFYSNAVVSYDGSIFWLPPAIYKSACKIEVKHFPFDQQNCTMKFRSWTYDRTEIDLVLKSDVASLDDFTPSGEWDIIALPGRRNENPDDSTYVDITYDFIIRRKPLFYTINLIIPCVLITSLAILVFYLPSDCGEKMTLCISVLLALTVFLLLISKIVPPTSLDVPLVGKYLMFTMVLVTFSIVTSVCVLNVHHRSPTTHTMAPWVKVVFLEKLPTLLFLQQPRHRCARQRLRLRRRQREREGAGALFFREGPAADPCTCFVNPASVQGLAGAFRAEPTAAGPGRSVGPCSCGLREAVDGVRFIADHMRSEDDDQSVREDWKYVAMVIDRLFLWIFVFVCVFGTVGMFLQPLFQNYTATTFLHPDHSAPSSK
Procedure: The [^3H]nicotine (Specific Activity=81.5 Ci/mmol) was obtained from NEN Research Products. The binding of [^3H]nicotine was measured using a 3 h incubation at 4° C. […] Each filter was washed with ice-cold buffer (3×1 mL).
Each concentration was replicated in triplicate.

Human α4β2 = Human α4β2 (Homo sapiens, UniProt P17787+P43681); assay: Binding at human α4β2 (Ki); method not described
Sequence of Human α4β2 (P43681 29-627 limits assumed): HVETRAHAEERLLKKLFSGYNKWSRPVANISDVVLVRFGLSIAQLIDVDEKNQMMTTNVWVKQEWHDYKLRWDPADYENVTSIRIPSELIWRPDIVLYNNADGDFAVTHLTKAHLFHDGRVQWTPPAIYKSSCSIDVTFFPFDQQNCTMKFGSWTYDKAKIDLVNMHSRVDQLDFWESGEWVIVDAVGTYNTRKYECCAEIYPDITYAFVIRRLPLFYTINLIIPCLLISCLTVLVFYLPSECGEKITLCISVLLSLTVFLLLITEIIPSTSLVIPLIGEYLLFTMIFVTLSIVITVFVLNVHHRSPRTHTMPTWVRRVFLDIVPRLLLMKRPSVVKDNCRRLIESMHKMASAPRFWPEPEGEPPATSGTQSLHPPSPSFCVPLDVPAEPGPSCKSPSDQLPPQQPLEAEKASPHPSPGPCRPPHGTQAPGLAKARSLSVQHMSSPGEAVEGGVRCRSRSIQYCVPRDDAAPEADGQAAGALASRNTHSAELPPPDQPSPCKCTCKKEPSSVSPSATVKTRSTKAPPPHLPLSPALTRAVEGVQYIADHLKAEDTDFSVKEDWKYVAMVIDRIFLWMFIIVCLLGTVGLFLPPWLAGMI
Sequence of Human α4β2 (P17787 26-502): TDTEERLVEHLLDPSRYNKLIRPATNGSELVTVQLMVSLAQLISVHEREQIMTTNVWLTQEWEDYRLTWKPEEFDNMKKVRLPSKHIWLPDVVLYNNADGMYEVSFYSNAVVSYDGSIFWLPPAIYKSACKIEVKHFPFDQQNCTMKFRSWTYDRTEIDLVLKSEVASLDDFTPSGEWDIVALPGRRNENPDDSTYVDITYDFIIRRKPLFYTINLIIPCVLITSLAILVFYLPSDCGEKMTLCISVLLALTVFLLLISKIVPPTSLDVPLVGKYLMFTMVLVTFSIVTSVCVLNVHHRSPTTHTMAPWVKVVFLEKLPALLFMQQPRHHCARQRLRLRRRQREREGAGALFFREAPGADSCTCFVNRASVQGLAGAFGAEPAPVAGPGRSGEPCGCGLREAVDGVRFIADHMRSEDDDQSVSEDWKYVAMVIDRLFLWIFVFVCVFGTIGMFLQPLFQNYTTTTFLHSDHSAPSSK

α7 nAChR Subtype = α7 nAChR Subtype (Rattus norvegicus, UniProt Q05941); assay: Radioligand binding at α7 nAChR subtype, inhibition of [3H]MLA binding, rat hippocampus membranes (HTS at 5 μM, then Ki); conditions: for inhibition at 5 µM: read-out: α7 HTS outcome (α7 Ki)
Sequence of α7 nAChR Subtype (Q05941 23-502): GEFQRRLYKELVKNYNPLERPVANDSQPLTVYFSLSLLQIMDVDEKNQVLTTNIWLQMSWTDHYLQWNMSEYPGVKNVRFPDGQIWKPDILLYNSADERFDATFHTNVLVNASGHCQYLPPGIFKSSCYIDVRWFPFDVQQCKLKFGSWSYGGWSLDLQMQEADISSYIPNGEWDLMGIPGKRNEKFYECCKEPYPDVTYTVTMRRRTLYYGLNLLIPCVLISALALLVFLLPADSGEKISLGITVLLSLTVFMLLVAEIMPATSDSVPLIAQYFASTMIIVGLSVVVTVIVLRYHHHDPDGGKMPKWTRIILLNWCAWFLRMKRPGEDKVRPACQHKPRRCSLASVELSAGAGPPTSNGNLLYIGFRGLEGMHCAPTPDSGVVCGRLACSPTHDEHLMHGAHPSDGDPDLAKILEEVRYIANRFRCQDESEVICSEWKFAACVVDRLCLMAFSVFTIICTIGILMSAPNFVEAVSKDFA

[1] = read-out: α7 Ki, [3H]MLA 5 nM, rat hippocampus

Row | SMILES | Ki (α4β2 nAChR Subtype; read-out: Rat α4β2 Ki) [µM] | Ki (Human α4β2) [µM] | Ki (α7 nAChR Subtype) [µM] | Ki (α4β2 nAChR Subtype; Rat α4β2 Ki) [µM] | inhibition at 5 µM (α7 nAChR Subtype) [%] | Ki (α7 nAChR Subtype; [1]) [µM]
1 | NC(=O)C1CC2CNCC(C2)C1 (stereo not shown) [3-azabicyclo[3.3.1]nonane-7-carboxamide] | 0.0405 | 0.0769 | > 10 |  |  | 
2 | O=C(NCCF)C1CC2CNCC(C2)C1 (stereo not shown) [N-(2-fluoroethyl)-3-azabicyclo[3.3.1]nonane-7-carboxamide] |  | 0.0135 | > 10 | 0.122 |  | 
3 | NC(=O)C1C[C@H]2CNC[C@H]2C1 (mixture of isomers) [3-azabicyclo[3.3.0]octane-7-carboxamide] | 0.394 | 0.32 | 8.28 |  |  | 
4 | O=C(C1CC2CNCC(C2)C1)N1CCOCC1 (stereo not shown) [4-morpholinyl(3-azabicyclo[3.3.1]non-7-yl)methanone] | 0.0625 | 0.0225 |  |  | < 50 | 
5 | O=C(Nc1cccnc1)C1CC2CNCC(C2)C1 (stereo not shown) [N-(pyridin-3-yl)-3-azabicyclo[3.3.1]nonane-7-carboxamide] |  | 0.0468 |  |  | < 50 | 
6 | O=C(OC1CCOCC1)C1C[C@H]2CNC[C@H]2C1 (mixture of isomers) [tetrahydropyran-4-yl 3-azabicyclo[3.3.0]octane-7-carboxylate] | 0.0685 | 0.146 |  |  | < 50 | 
7 | O=C(CF)C1CC2CNCC2C1 (single isomer, unassigned; isomer 1) [1-(3-azabicyclo[3.3.0]oct-7-yl)-2-fluoro-1-ethanone trifluoroacetate] | 0.154 | 0.176 |  |  |  | 
8 | O=C(c1occc1Br)C1C[C@H]2CNC[C@H]2C1 (mixture of isomers) [3-bromofuran-2-yl(3-azabicyclo[3.3.0]oct-7-yl)methanone] | 0.0028 | 0.0009 |  |  | < 50 | 
9 | CCC(C)C(=O)C1C[C@H]2CNC[C@H]2C1 (mixture of isomers) [1-(3-azabicyclo[3.3.0]oct-7-yl)-2-methyl-1-butanone] | 0.0111 | 0.0033 |  |  | < 50 | 
10 | O=C(OCCF)C1C[C@H]2CNC[C@H]2C1 (mixture of isomers) [2-fluoroethyl 3-azabicyclo[3.3.0]octane-7-carboxylate] | 0.0551 | 0.102 |  |  | < 50 | 
11 | CN(C)C(=O)C1CC2CNCC(C2)C1 (stereo not shown) [N,N-dimethyl-3-azabicyclo[3.3.1]nonane-7-carboxamide] |  | 0.054 | > 10 | 0.078 |  | 
12 | CCOC(=O)C1C[C@H]2CNC[C@H]2C1 (mixture of isomers) [ethyl 3-azabicyclo[3.3.0]octane-7-carboxylate] | 0.0458 | 0.0175 |  |  | < 50 | 
13 | O=C(OC1CCC1)C1C[C@H]2CNC[C@H]2C1 (mixture of isomers) [cyclobutyl 3-azabicyclo[3.3.0]octane-7-carboxylate] |  | 0.0806 | > 10 |  |  | 
14 | O=C(OC1CCOC1)C1C[C@H]2CNC[C@H]2C1 (stereo partly shown) [tetrahydrofuran-3-yl 3-azabicyolo[3.3.0]octane-7-carboxylate] | 0.129 | 0.12 | > 10 |  |  | 
15 | C/C=C/C(=O)C1C[C@H]2CNC[C@H]2C1 (stereo partly drawn) [trans-1-(3-azabicyclo[3.3.0]oct-7-yl)-2-buten-1-one] |  | 0.0297 | > 10 | 0.0154 |  | 
16 | CC(=O)C1C[C@H]2CNC[C@H]2C1 (mixture of isomers) [1-(3-azabicyclo[3.3.0]oct-7-yl)-1-ethanone] | 0.0073 | 0.0107 |  |  |  | > 10
17 | O=C(C1C[C@H]2CNC[C@H]2C1)N1CCC[C@H]1CO (mixture of isomers) [(S)-(2-(hydroxymethyl)-1-pyrrolidinyl)(3-azabicyclo[3.3.0]oct-7-yl)methanone] | 0.537 | 0.271 |  |  | < 50 | 
18 | O=C(C1CCCCC1)C1C[C@H]2CNC[C@H]2C1 (mixture of isomers) [cyclohexyl(3-azabicyclo[3.3.0]oct-7-yl)methanone] | 0.192 | 0.0442 |  |  | < 50 | 
19 | CCCNC(=O)C1CC2CNCC(C2)C1 (stereo not shown) [N-propyl-3-azabicyclo[3.3.1]nonane-7-carboxamide] | 0.0214 | 0.0104 |  |  | < 50 | 
20 | CC(C)NC(=O)C1CC2CNCC(C2)C1 (stereo not shown) [N-isopropyl-3-azabicyclo[3.3.1]nonane-7-carboxamide] | 0.082 | 0.031 |  |  | < 50 | 
21 | CN(C)C(=O)C1=C[C@@H]2CNC[C@@H]2C1 [N,N-dimethyl-3-azabicyclo[3.3.0]oct-6-ene-7-carboxamide] |  | 0.164 | > 10 | 0.06 |  | 
22 | COCCNC(=O)C1CC2CNCC(C2)C1 (stereo not shown) [N-(2-methoxyethyl)-3-azabicyclo[3.3.1]nonane-7-carboxamide] | 0.457 | 0.774 |  |  | < 50 | 
23 | Cc1ccc(C(=O)C2C[C@H]3CNC[C@H]3C2)o1 (mixture of isomers) [5-methylfuran-2-yl(3-azabicyclo[3.3.0]oct-7-yl)methanone] | 0.0743 | 0.037 |  |  | < 50 | 

Row | SMILES | Ki (α4β2 nAChR Subtype; read-out: Rat α4β2 Ki) [µM] | Ki (Human α4β2) [µM] | Ki (α7 nAChR Subtype) [µM] | Ki (α4β2 nAChR Subtype; Rat α4β2 Ki) [µM] | inhibition at 5 µM (α7 nAChR Subtype) [%] | Ki (α7 nAChR Subtype; [1]) [µM]
24 | O=C(NCCCF)C1CC2CNCC(C2)C1 (stereo not shown) [N-(3-fluoropropyl)-3-azabicyclo[3.3.1]nonane-7-carboxamide] | 0.0447 | 0.0232 |  |  | < 50 | 
25 | O=C(C1C[C@H]2CNC[C@H]2C1)N1CC=CCC1 (mixture of isomers) [(3-azabicyclo[3.3.0]oct-7-yl)(2,3,6-trihydropyridin-1-yl)methanone] | 0.0463 | 0.0284 |  |  | < 50 | 
26 | C=CCC(C)OC(=O)C1C[C@H]2CNC[C@H]2C1 (mixture of isomers) [pent-4-en-2-yl 3-azabicyclo[3.3.0]octane-7-carboxylate] |  | 0.0448 |  |  |  | > 10
27 | O=C(OC1CCCC1)C1C[C@H]2CNC[C@H]2C1 (mixture of isomers) [cyclopentyl 3-azabicyclo[3.3.0]octane-7-carboxylate] | 0.0266 | 0.0139 |  |  | < 50 | 
28 | CC(CF)OC(=O)C1C[C@H]2CNC[C@H]2C1 (mixture of isomers) [1-fluoroprop-2-yl 3-azabicyclo[3.3.0]octane-7-carboxylate] | 0.271 | 0.112 |  |  | < 50 | 
29 | O=C(NCC1CC1)C1CC2CNCC(C2)C1 (stereo not shown) [N-(cyclopropylmethyl)-3-azabicyclo[3.3.1]nonane-7-carboxamide] | 0.0691 | 0.0922 |  |  | < 50 | 
30 | CCCCC(=O)[C@@H]1C[C@H]2CNC[C@H]2C1 [trans-1-(3-azabicyclo[3.3.0]oct-7-yl)-1-pentanone] | 0.108 | 0.186 |  |  | < 50 | 
31 | CN(C)C(=O)[C@@H]1C[C@H]2CNC[C@H]2C1 [trans-N,N-dimethyl-3-azabicyclo[3.3.0]octane-7-carboxamide] |  | 0.114 |  | 0.0287 | < 50 | 
32 | O=C(NC1CCC1)C1CC2CNCC(C2)C1 (stereo not shown) [N-(cyclobutyl)-3-azabicyclo[3.3.1]nonane-7-carboxamide] | 0.135 | 0.308 |  |  | < 50 | 
33 | CC(C)C(=O)C1CC2CNCC(C2)C1 (stereo not shown) [1-(3-azabicyclo[3.3.1]non-7-yl)-2-methyl-1-propanone] |  | 0.0789 | > 10 |  |  | 
34 | CC(C)OC(=O)C1C[C@H]2CNC[C@H]2C1 (mixture of isomers) [isopropyl 3-azabicyclo[3.3.0]octane-7-carboxylate] | 0.103 | 0.0078 | > 10 |  |  | 
35 | NCCNC(=O)C1CC2CNCC(C2)C1 (stereo not shown) [N-(2-aminoethyl)-3-azabicyclo[3.3.1]nonane-7-carboxamide] |  | 0.0524 |  |  | < 50 | 
36 | O=C(C1=CC2CNCC2C1)c1ccco1.O=C(O)C(F)(F)F (stereo not shown) [2-furanyl(3-azabicyclo[3.3.0]oct-6-en-7-yl)methanone trifluoroacetate] |  | 0.002 |  | 0.008 |  | 
37 | O=C(CF)C1CC2CNCC2C1 (single isomer, unassigned; isomer 1) [1-(3-azabicyclo[3.3.0]oct-7-yl)-2-fluoro-1-ethanone trifluoroacetate cis isomer, 1-(3-azabicyclo[3.3.0]oct-7-yl)-2-fluoro-1-ethanone trifluoroacetate] | 0.0068 | 0.0063 |  |  |  | 
38 | CN(C)C(=O)[C@H]1C[C@H]2CNC[C@H]2C1 [cis-N,N-dimethyl-3-azabicyclo[3.3.0]octane-7-carboxamide] |  | 1.34 |  |  | < 50 | 
39 | COCC(=O)C1C[C@H]2CNC[C@H]2C1.O=C(O)C(F)(F)F (mixture of isomers) [1-(3-azabicyclo[3.3.0]oct-7-yl)-2-methoxy-1-ethanone trifluoroacetate] | 0.032 | 0.031 |  |  |  | 
40 | O=C(NCC(F)(F)F)C1C[C@H]2CNC[C@H]2C1.O=C(O)C(F)(F)F (mixture of isomers) [N-(2,2,2-trifluoroethyl)-3-azabicyclo[3.3.0]octane-7-carboxamide trifluoroacetate] |  | 0.261 |  |  |  | 
41 | CC1COCC(C)N1C(=O)C1=C[C@@H]2CNC[C@@H]2C1 (stereo partly shown) [(3-azabicyclo[3.3.0]oct-6-en-7-yl)(2,6-dimethylmorpholin-1-yl)methanone] |  | 1.71 |  |  | < 50 | 
42 | COC(=O)C1=CC2CNCC2C1.Cl (stereo not shown) [methyl 3-azabicyclo[3.3.0]-oct-6-ene-7-carboxylate hydrochloride] | 0.005 | 0.002 |  |  |  | 
43 | CC(C)OCC(=O)C1C[C@H]2CNC[C@H]2C1.O=C(O)C(F)(F)F (mixture of isomers) [1-(3-Azabicyclo[3.3.0]oct-7-yl)-2-isopropoxy-1-ethanone trifluoroacetate] | 0.427 | 0.261 |  |  |  | 
44 | O=C(c1ccco1)C1CC2CNCC(C2)C1 (stereo not shown) [2-furanyl(3-azabicyclo[3.3.1]non-7-yl)methanone] |  | 0.113 | > 10 |  |  | 
45 | O=C(Nc1ccccc1)C1CC2CNCC(C2)C1 (stereo not shown) [N-phenyl-3-azabicyclo[3.3.1]nonane-7-carboxamide] |  | 0.0127 |  |  | < 50 | 
